In one assay the target is Acetylcholinesterase (Electrophorus electricus, UniProt O42275). The assay can be described thus: Inhibition constant (Ki) against electric eel Acetylcholinesterase as Km/Vmax versus inhibitor concentration replot.
The subject of the next assay is Gallus gallus. Briefly: Compound was tested in vivo for antiangiogenic activity (10 microg dose/ egg) on chorioallantoic membrane of growing chick embryos. The format is functional.

Acetylcholinesterase, sequence (O42275 whole entry): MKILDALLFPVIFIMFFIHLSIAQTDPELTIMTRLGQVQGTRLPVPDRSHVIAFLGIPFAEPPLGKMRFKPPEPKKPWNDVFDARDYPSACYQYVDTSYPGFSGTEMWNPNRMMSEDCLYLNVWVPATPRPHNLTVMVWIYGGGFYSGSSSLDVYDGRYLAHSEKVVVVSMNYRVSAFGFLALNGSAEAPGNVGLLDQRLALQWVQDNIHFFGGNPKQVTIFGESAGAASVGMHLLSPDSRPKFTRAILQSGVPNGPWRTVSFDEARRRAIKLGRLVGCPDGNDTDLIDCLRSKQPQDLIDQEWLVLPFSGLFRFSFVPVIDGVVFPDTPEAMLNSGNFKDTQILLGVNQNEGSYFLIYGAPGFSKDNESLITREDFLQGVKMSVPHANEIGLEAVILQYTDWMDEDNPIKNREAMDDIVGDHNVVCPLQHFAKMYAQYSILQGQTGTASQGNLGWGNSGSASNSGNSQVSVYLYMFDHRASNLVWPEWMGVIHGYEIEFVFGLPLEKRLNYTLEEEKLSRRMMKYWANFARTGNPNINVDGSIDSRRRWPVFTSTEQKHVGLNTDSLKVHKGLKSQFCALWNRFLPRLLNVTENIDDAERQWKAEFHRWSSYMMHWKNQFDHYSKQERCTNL

`Fc1nc(F)c(F)c(-c2c3nc(c(-c4c(F)c(F)nc(F)c4F)c4ccc([nH]4)c(-c4c(F)c(F)nc(F)c4F)c4ccc([nH]4)c(-c4c(F)c(F)nc(F)c4F)c4nc2C=C4)C=C3)c1F` showed a Ki at Acetylcholinesterase of 7.29 µM.

As to `Fc1ccccc1-c1c2nc(c(-c3ccccc3F)c3ccc([nH]3)c(-c3ccccc3F)c3ccc([nH]3)c(-c3ccccc3F)c3nc1C=C3)C=C2`, the Ki on Acetylcholinesterase was determined as 50.9 µM.

As to `Fc1cnccc1-c1c2nc(c(-c3ccncc3F)c3ccc([nH]3)c(-c3ccncc3F)c3ccc([nH]3)c(-c3ccncc3F)c3nc1C=C3)C=C2`, the Ki at Acetylcholinesterase is 5.08 µM. This Ki is about 10-fold lower than that of the compound before. On the same count and under the same terms, then `Fc1cnc(F)c(F)c1-c1c2nc(c(-c3c(F)cnc(F)c3F)c3ccc([nH]3)c(-c3c(F)cnc(F)c3F)c3ccc([nH]3)c(-c3c(F)cnc(F)c3F)c3nc1C=C3)C=C2`, with 2.85 µM.

`Fc1ccc(-c2c3nc(c(-c4ccc(F)cc4F)c4ccc([nH]4)c(-c4ccc(F)cc4F)c4ccc([nH]4)c(-c4ccc(F)cc4F)c4nc2C=C4)C=C3)c(F)c1` displayed a Ki at Acetylcholinesterase of 0.012 µM. This Ki is about 240-fold lower than that of the compound before. On the same count and under the same terms, then `Oc1cccc(-c2c3nc(c(-c4cccc(O)c4)c4ccc([nH]4)c(-c4cccc(O)c4)c4ccc([nH]4)c(-c4cccc(O)c4)c4nc2C=C4)C=C3)c1`, with 29.6 µM; and `Oc1ccccc1-c1c2nc(c(-c3ccccc3O)c3ccc([nH]3)c(-c3ccccc3O)c3ccc([nH]3)c(-c3ccccc3O)c3nc1C=C3)C=C2`, with 18.3 µM. In turn, `Fc1cccc(-c2c3nc(c(-c4cccc(F)c4)c4ccc([nH]4)c(-c4cccc(F)c4)c4ccc([nH]4)c(-c4cccc(F)c4)c4nc2C=C4)C=C3)c1` gave a Ki at Acetylcholinesterase of 9.7 µM. `C[n+]1ccc(-c2c3nc(c(-c4cc[n+](C)cc4F)c4ccc([nH]4)c(-c4cc[n+](C)cc4F)c4ccc([nH]4)c(-c4cc[n+](C)cc4F)c4nc2C=C4)C=C3)c(F)c1.Cc1ccc(S(=O)(=O)[O-])cc1.Cc1ccc(S(=O)(=O)[O-])cc1.Cc1ccc(S(=O)(=O)[O-])cc1.Cc1ccc(S(=O)(=O)[O-])cc1` gave an Inhibition in the assay with Gallus gallus of 60%. At Acetylcholinesterase, affinity was put at a Ki of 3.06 µM.

In turn, `Fc1cccc(F)c1-c1c2nc(c(-c3c(F)cccc3F)c3ccc([nH]3)c(-c3c(F)cccc3F)c3ccc([nH]3)c(-c3c(F)cccc3F)c3nc1C=C3)C=C2` yielded a Ki at Acetylcholinesterase of 0.005 µM.

Take `Oc1ccc(O)c(-c2c3nc(c(-c4cc(O)ccc4O)c4ccc([nH]4)c(-c4cc(O)ccc4O)c4ccc([nH]4)c(-c4cc(O)ccc4O)c4nc2C=C4)C=C3)c1`: the Ki at Acetylcholinesterase was found to be 2.5 µM.

Usually Ki stands for the equilibrium dissociation constant of an inhibitor or competing ligand from its target. High values mean a looser hold on the target, low ones a stronger hold on the target. By Inhibition is commonly meant the share of the control response that was lost under treatment. Read a low Inhibition as a response near the control.

Source of the values: ChEMBL document CHEMBL1133210, “Synthesis of tetrakis(multifluoro-4-pyridyl)porphin derivatives as acetylcholinesterase inhibitors” (Bioorg Med Chem Lett, 2000).
